# In article PMC7055300, “Theileria parasites subvert E2F signaling to stimulate leukocyte proliferation” (Scientific Reports, 2020):
# How the values were obtained:
# Format in all cases: cell-based, bovine
# BL20/TBL20 cells = settings: penetrating peptides, 24 h and 48 h; data not shown
# Procedure: Since the LXCXE peptide can induce E2F activity, we investigated whether it could, on its own, increase bovine leukocyte proliferation. To extend our observations to T. annulata-infected leukocytes, we incubated T. annulata-infected B cells with WT or mutated LXNXE peptides and counted cell numbers at 24 h and 48 h.
# The amino acid sequence of RB-1 based on the parasite sequence ([…]) was synthesized. Cysteine in wild type RB1 was replaced by an Asparagine (N; in bold […]). The penetrating peptide to facilitate cell entry is underlined. 3 different concentrations of peptides were used for 2 h to determine the minimum effective concentration (1 μM) with minimum toxic effect, which was used to perform each experiment as indicated.
# [1] = test system: E2F activity in T. annulata-infected B cells; assay: E2F-luc reporter assay, T. annulata-infected B cells (TBL20); settings: T. annulata-infected B cells, E2F-luc, 1 μM penetrating peptide, 2 hrs
# Procedure: (§1) Since no system for genetic manipulation is available yet for intracellular Theileria, we instead incubated T. parva- and T. annulata-infected bovine leukocytes (transfected with a luciferase reporter regulated from an E2F promoter) with synthesized peptides containing the RB-binding LXCXE motif, or a mutated LXNXE negative control, linked to a cell-penetrating peptide. If the LXCXE-containing peptide can regulate E2F activity in a sequence-specific manner, we would expect it to increase E2F activity, and that this effect would be reduced or abrogated in the mutated LXNXE peptide-treated group.
# (§2) (a) TpMD409B.2 cells were transfected with E2F-luc (WT = wild-type E2F binding construct), or mutated E2F-luc constructs (labeled ‘mutated’) together with a CMV-lacZ plasmid to normalize for transfection efficiency. Luciferase and β-galactosidase activities were measured 24 hrs after transfection. E2F-luc relative luciferase activity normalized to mE2F-luc. Shown is the average of 3 independent experiments with standard deviation. BL20 or TBL20 cells were treated with (b) 1μM of penetrating peptides ([…]-K(FITC)) containing the TpGcpE LXCXE motif, or an LXNXE control ([…]-K(FITC)) or (c) E2F inhibitor or DMSO control, and then counted by hemacytometer after the indicated timepoints. Shown is the average of 3 independent experiments with standard deviation. Then, either (d) virulent Ode T. annulata-transformed macrophages, or (e) BL20/TBL20 T. annulata-transformed cells were transfected with E2F-luc plasmid (or mutated E2F-luc as in (c)) and incubated for 24 hrs at 37 °C. Then, cells were treated with penetrating peptides as in (b) for 2 hrs and luciferase activity was quantified. […]
# TpMD409.B2 cells were co-transfected with 20 μg (E2F-luc, mE2F-luc), or 10 μg (cyclin E-luc) reporter construct, 20 μg of expression vector and 5 μg of pCMV-lacZ, where indicated. Luciferase and β-galactosidase activities were measured 24 h after transfection according to previously published procedures. […]
# [2] = test system: E2F activity in T. annulata-infected macrophages; assay: E2F-luc reporter assay, T. annulata-transformed macrophages (Ode); settings: 1 μM penetrating peptide, 2 hrs
# Procedure: as §1
# as §2, with “Shown is the average of 3 independent experiments with standard deviation. Then, either (d) virulent Ode T. annulata-transformed macrophages, or (e) BL20/TBL20 T. annulata-transformed cells were transfected with E2F-luc plasmid (or mutated E2F-luc as in (c)) and incubated for 24 hrs at 37 °C.” left out
# [3] = test system: E2F activity in T. parva-infected B cells; assay: E2F-luc reporter assay, T. parva-infected B cells; settings: penetrating peptide
# Procedure: as §1
# TpMD409.B2 cells were co-transfected with 20 μg (E2F-luc, mE2F-luc), or 10 μg (cyclin E-luc) reporter construct, 20 μg of expression vector and 5 μg of pCMV-lacZ, where indicated. Luciferase and β-galactosidase activities were measured 24 h after transfection according to previously published procedures. TpMD409.B2 cells were also co-transfected with pCMV-HA-DP-1 D103–126 and c-myc-luciferase as previously described.
# The amino acid sequence of RB-1 based on the parasite sequence ([…]) was synthesized. Cysteine in wild type RB1 was replaced by an Asparagine (N; in bold […]). The penetrating peptide to facilitate cell entry is underlined. […]
substance,measurement,setting,value
"VKKKKIKREIKIYIEEVFTPLVLKNKELK-K(FITC) [LXNXE peptide, penetrating peptide with mutated LXNXE motif, negative control]",cell viability,BL20/TBL20 cells,no effect on cell viability
same,E2F reporter activity,[1],did not show the same reporter activity as the LXCXE peptide
same,E2F reporter activity,[2],did not show the same reporter activity as the LXCXE peptide
same,E2F reporter activity,[3],did not show the same reporter activity as the LXCXE peptide
